Test results from patent US20090233796A1, “HERBICIDAL COMPOSITION” (SYNGENTA CROP PROTECTION, INC., priority 2004, published 2009).

Legend:
Type in all cases: in vivo
[1] = system: CONYZA SP.; experiment: Compound (A) with paraquat, weed plots; details: 5 DAA
Protocol: (§1) In these tests, various weeds were treated with paraquat alone at rates equivalent to 700 g per hectare and 840 g per hectare, compound (A) alone at rates equivalent to 10 g per hectare and 20 g per hectare, and with a mixture of paraquat and compound (A) at rates equivalent to the sum of these. The compositions were formulated as an emulsifyable concentrate (EC).
(§2) The results in the table under each application are the percentage of the weeds plants that were killed.

[2] = system: CYPERUS ROTUNDUS; experiment: Compound (A) with paraquat, weed plots; details: 56 DAA, No. 1.11
Protocol: as §1, §2

[3] = system: DIGITARIA CILIARIS; experiment: Compound (A) with paraquat, weed plots; details: 20 g/ha; 51 DAA; No. 1.7
Protocol: as §1, §2

[4] = system: E[…]-GALLI; experiment: Compound (A) with paraquat, weed plots; details: 51 DAA, No. 1.8
Protocol: as §1, §2

[5] = system: LAMIUM PURPUREUM; experiment: Compound (A) with paraquat, weed plots; details: 2 DAA, No. 1.5
Protocol: as §1, §2

[6] = system: LOLIUM RIGIDUM; experiment: Compound (A) with paraquat, weed plots; details: 41 DAA, No. 1.4
Protocol: as §1, §2

[7] = system: SETARIA SP.; experiment: Compound (A) with paraquat, weed plots; details: 27 DAA, No. 1.2
Protocol: as §1, §2

[8] = system: SETARIA VIRIDIS; experiment: Compound (A) with paraquat, weed plots; details: 43 DAA, No. 1.3
Protocol: as §1, §2

[9] = system: SONCHUS ASPER; experiment: Compound (A) with paraquat, weed plots; details: 32 DAA, No. 1.10
Protocol: as §1, §2

[10] = system: VERONICA PERSICA; experiment: Compound (A) with paraquat, weed plots; details: 69 DAA, No. 1.6
Protocol: as §1, §2

[11] = system: COMMELINA SP.; experiment: Compound (A) with nicosulfuron, weed plots
Excerpt: In these tests, […] and Compound (A) at rates equivalent to the sum of these. The compositions were formulated as an emulsifyable concentrate (EC).
(§3) The results in the table under each application are the percentage of the plants that were killed.

[12] = system: Ipomoea; experiment: Compound (A) with primisulfuron, weed plots; details: 44 DAA, Trial 3.21
Protocol: In these tests, various weeds were treated with primisulfuron alone at a rate equivalent to 35 g per hectare, […] and Compound (A) at rates equivalent to the sum of these. The compositions were formulated as an emulsifiable concentrate (EC).
(§4) The results in the tables under each application are the percentage of the plants that were killed.

[13] = system: Corn; experiment: Compound (A) with prosulfuron, weed plots; details: 13 DAA, No. 3.26
Excerpt: (§5) In these tests, […] and Compound (A) at rates equivalent to the sum of these. The compositions were formulated as an emulsifiable concentrate (EC).
as §4

[14] = system: Galium; experiment: Compound (A) with prosulfuron, weed plots; details: 13 DAA, No. 3.24
Excerpt: as §5, §4

[15] = system: Brachiaria; experiment: Compound (A) with prosulfuron, weed plots; details: 13 DAA, No. 3.27
Protocol: (§6) In these tests, various weeds were treated with prosulfinuron alone at a rate equivalent to 35 g per hectare, […] and Compound (A) at rates equivalent to the sum of these. The compositions were formulated as an emulsifiable concentrate (EC).
as §4

[16] = system: Euphorbia; experiment: Compound (A) with prosulfuron, weed plots; details: 13 DAA, No. 3.28
Protocol: as §6, §4

[17] = system: Rice; experiment: Compound (A) with prosulfuron, weed plots; details: 13 DAA, No. 3.29
Protocol: as §6, §4

[18] = system: Veronica; experiment: Compound (A) with prosulfuron, weed plots; details: 13 DAA, No. 3.25
Protocol: as §6, §4

[19] = system: Wheat; experiment: Compound (A) with prosulfuron, weed plots; details: 13 DAA, No. 3.30
Protocol: as §6, §4

[20] = system: ABUTILON THEOPHRASTI; experiment: Compound (A) with S-metolachlor, weed plots
Excerpt: […] The compositions were formulated as an emulsifyable concentrate (EC).
as §3

[21] = system: Cyperus; experiment: Compound (A) with sulcotrione, weed plots; details: 14 DAA, Trial 5.1
Protocol: In these tests, various weeds were treated with sulcotrione alone at an application rate equivalent to 1420 g per hectare, […] and Compound (A) at rates equivalent to the sum of these. The compositions were formulated as an emulsifyable concentrate (EC).
as §3

CCOC(=O)COc1ncccc1Oc1cc(-n2c(=O)cc(C(F)(F)F)n(C)c2=O)c(F)cc1Cl [Compound (A)]
percentage of the weeds plants that were killed ([1]; 10 g/ha, No. 1.1): 37% | percentage of the weeds plants that were killed ([1]; 10 g/ha, No. 1.9): 37% | percentage of the weeds plants that were killed ([1]; 20 g/ha, No. 1.1): 40% | percentage of the weeds plants that were killed ([1]; 20 g/ha, No. 1.9): 40% | percentage of the weeds plants that were killed ([2]; 10 g/ha): 0% | percentage of the weeds plants that were killed ([2]; 20 g/ha): 0% | percentage of the weeds plants that were killed [3]: 0% | percentage of the weeds plants that were killed ([4]; 10 g/ha): 0% | percentage of the weeds plants that were killed ([4]; 20 g/ha): 0% | percentage of the weeds plants that were killed ([5]; 10 g/ha): 30% | percentage of the weeds plants that were killed ([5]; 20 g/ha): 33% | percentage of the weeds plants that were killed ([6]; 10 g/ha): 27% | percentage of the weeds plants that were killed ([6]; 20 g/ha): 47% | percentage of the weeds plants that were killed ([7]; 10 g/ha): 0% | percentage of the weeds plants that were killed ([7]; 20 g/ha): 25% | percentage of the weeds plants that were killed ([8]; 10 g/ha): 0% | percentage of the weeds plants that were killed ([8]; 20 g/ha): 23% | percentage of the weeds plants that were killed ([9]; 10 g/ha): 60% | percentage of the weeds plants that were killed ([9]; 20 g/ha): 55% | percentage of the weeds plants that were killed ([10]; 10 g/ha): 25% | percentage of the weeds plants that were killed ([10]; 20 g/ha): 100% | percentage of the plants that were killed ([11]; 5 g/ha, 10 DAA, No. 3.18): 30% | percentage of the plants that were killed ([11]; 5 g/ha, 17 DAA, No. 3.19): 20% | percentage of the plants that were killed ([11]; 10 g/ha, 10 DAA, No. 3.18): 50% | percentage of the plants that were killed ([11]; 10 g/ha, 17 DAA, No. 3.19): 30% | percentage of the plants that were killed ([11]; 20 g/ha, 10 DAA, No. 3.18): 58% | percentage of the plants that were killed ([11]; 20 g/ha, 17 DAA, No. 3.19): 50% | percentage of the plants that were killed ([12]; 1.25 g/ha): 80% | percentage of the plants that were killed ([12]; 2.5 g/ha): 100% | percentage of the plants that were killed ([12]; 5 g/ha): 100% | percentage of the plants that were killed ([13]; 1.25 g/ha): 70% | percentage of the plants that were killed ([13]; 2.5 g/ha): 90% | percentage of the plants that were killed ([13]; 5 g/ha): 98% | percentage of the plants that were killed ([14]; 1.25 g/ha): 50% | percentage of the plants that were killed ([14]; 2.5 g/ha): 50% | percentage of the plants that were killed ([14]; 5 g/ha): 100% | percentage of the plants that were killed ([15]; 1.25 g/ha): 50% | percentage of the plants that were killed ([15]; 2.5 g/ha): 60% | percentage of the plants that were killed ([15]; 5 g/ha): 98% | percentage of the plants that were killed ([16]; 1.25 g/ha): 50% | percentage of the plants that were killed ([16]; 2.5 g/ha): 70% | percentage of the plants that were killed ([16]; 5 g/ha): 70% | percentage of the plants that were killed ([17]; 1.25 g/ha): 50% | percentage of the plants that were killed ([17]; 2.5 g/ha): 70% | percentage of the plants that were killed ([17]; 5 g/ha): 90% | percentage of the plants that were killed ([18]; 1.25 g/ha): 80% | percentage of the plants that were killed ([18]; 2.5 g/ha): 100% | percentage of the plants that were killed ([18]; 5 g/ha): 100% | percentage of the plants that were killed ([19]; 1.25 g/ha): 80% | percentage of the plants that were killed ([19]; 2.5 g/ha): 95% | percentage of the plants that were killed ([19]; 5 g/ha): 100% | percentage of the plants that were killed ([20]; 20 g/ha, 15 DAA, Trial 4.12): 25% | percentage of the plants that were killed ([20]; 20 g/ha, 23 DAA, Trial 4.3): 43% | percentage of the plants that were killed ([20]; 20 g/ha, 38 DAA, Trial 4.4): 35% | percentage of the plants that were killed ([20]; 20 g/ha, 56 DAA, Trial 4.13): 0% | percentage of the plants that were killed ([20]; 40 g/ha, 15 DAA, Trial 4.12): 88% | percentage of the plants that were killed ([20]; 40 g/ha, 23 DAA, Trial 4.3): 78% | percentage of the plants that were killed ([20]; 40 g/ha, 38 DAA, Trial 4.4): 70% | percentage of the plants that were killed ([20]; 40 g/ha, 56 DAA, Trial 4.13): 13% | percentage of the plants that were killed ([21]; 1.25 g/ha): 50% | percentage of the plants that were killed ([21]; 5 g/ha): 50%
